In patent US20240279283A1, “CYCLIC PEPTIDE ANTIBIOTICS” (priority 2021, published 2024):
Bridge positions count the residues as written; N and C are the ends. Square brackets hold non-standard residues; d marks the D form. Peptide text beside a SMILES is read from it. NMePhe(4-Cl) = CN[C@@H](Cc1ccc(Cl)cc1)C(=O)O; Phe(4-Cl) = N[C@@H](Cc1ccc(Cl)cc1)C(=O)O; Gly(Nα-CH2CH2CONH2) = NC(=O)CCNCC(=O)O; 1Nal = N[C@@H](Cc1cccc2ccccc12)C(=O)O; His(π-Me) = Cn1cncc1C[C@H](N)C(=O)O; NMeY = CN[C@@H](Cc1ccc(O)cc1)C(=O)O; NMeR = CN[C@@H](CCCNC(=N)N)C(=O)O; Gly(N(CH2)3NH2) = NCCCNCC(=O)O; Abu = CC[C@H](N)C(=O)O

Experiments:
Format in all cases: cell-based
Settings in all cases: LB broth, 5×10^5 CFU/ml, 37° C., 18 hours, scored by eye
K. pneumoniae ATCC43816 = assay: Minimum Inhibitory Concentration (MIC) determination, K. pneumoniae ATCC43816; parameters: unit not given here
Description: (§1) MICs were determined by performing two-fold serial dilutions of peptides in LB broth to a final volume of 0.1 ml in round-bottom 96-well assay plates (Corning Life Sciences No 3788). Peptides were initially resuspended in 100% DMSO to 10 mM and subsequently diluted in LB medium to the appropriate concentration. Each well was inoculated with 5×10^5 CFU/ml of the screening stain and incubated at 37° C. without agitation for 18 hours. Plates were scored by eye, and the lowest compound concentration preventing visible growth was determined to be the MIC.

E. cloacae ATCC222 = assay: Minimum Inhibitory Concentration (MIC) determination, E. cloacae ATCC222; parameters: unit not given here
Description: as §1

E. coli BW25113 = assay: Minimum Inhibitory Concentration (MIC) determination, E. coli BW25113; parameters: unit not given here
Method in brief: (§2)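 Peptides, diluted two-fold in LB broth from 10 mM DMSO stocks, were inoculated with 5×10^5 CFU/ml of each strain. Incubation was 18 h at 37 °C without shaking. MIC is the lowest concentration preventing visible growth, scored by eye.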

E. coli 25922 IMP = assay: Minimum Inhibitory Concentration (MIC) determination, E. coli 25922 IMP
Method in brief: as §2

E. coli 25922 = assay: Minimum Inhibitory Concentration (MIC) determination, E. coli 25922; parameters: unit not given here
Description: as §1

SMILES	MIC K. pneumoniae ATCC43816 Wuxi::MIC (K. pneumoniae ATCC43816)	MIC E. cloacae ATCC222 WUXI::MIC (E. cloacae ATCC222)	MIC E. coli BW25113 WUXI::MIC (E. coli BW25113)	MIC E. coli 25922 IMP WUXI::MIC (E. coli 25922 IMP)	MIC E. coli 25922 WUXI::MIC (E. coli 25922)
CC[C@@H](C)[C@H]1NC(=O)[C@@H](Cc2ccccc2)NC(=O)CSC[C@H](C(=O)NCC(N)=O)NC(=O)[C@@H](Cc2cncn2C)NC(=O)[C@@H](CCCNC(=N)N)NC(=O)[C@@H](Cc2cnc[nH]2)NC(=O)[C@@H](Cc2ccc(O)cc2)N(C)C(=O)[C@@H](CCCNC(=N)N)NC(=O)[C@@H](CO)NC(=O)CNC(=O)[C@@H](Cc2cnc[nH]2)NC(=O)[C@@H](Cc2cccc3ccccc23)NC1=O (mixture of isomers) [Compound 18]	19	0.78	19	0.00585	9.65
CC[C@@H]1NC(=O)[C@H](Cc2ccccc2)NC(=O)CSC[C@@H](C(=O)NCC(N)=O)NC(=O)[C@H](Cc2cncn2C)NC(=O)[C@H](CCCNC(=N)N)NC(=O)[C@H](Cc2c[nH]cn2)NC(=O)[C@H](Cc2ccc(O)cc2)N(C)C(=O)[C@H](CCCNC(=N)N)NC(=O)[C@H](CO)NC(=O)CN(CCCN)C(=O)[C@H](Cc2c[nH]cn2)NC(=O)[C@H](Cc2cccc3ccccc23)NC1=O [Compound 29] ({CH2CO}-F[Abu][1Nal]H[Gly(N(CH2)3NH2)]SR[NMeY]HR[His(π-Me)]CG-NH2; thioether N-12)	3.1	0.1	6.3	0.001	1.6
CC[C@@H]1NC(=O)[C@H](Cc2ccccc2)NC(=O)CSC[C@@H](C(=O)NCC(N)=O)NC(=O)[C@H](Cc2cncn2C)NC(=O)[C@H](CCCNC(=N)N)NC(=O)[C@H](Cc2c[nH]cn2)NC(=O)[C@H](Cc2ccc(Cl)cc2)N(C)C(=O)[C@H](CCCNC(=N)N)NC(=O)[C@H](CO)NC(=O)CNC(=O)[C@H](Cc2c[nH]cn2)NC(=O)[C@H](Cc2cccc3ccccc23)NC1=O [Compound 33] ({CH2CO}-F[Abu][1Nal]HGSR[NMePhe(4-Cl)]HR[His(π-Me)]CG-NH2; thioether N-12)	25	1.6	25	0.0005	13
CC[C@@H]1NC(=O)[C@H](Cc2ccccc2)NC(=O)CSC[C@@H](C(=O)NCC(N)=O)NC(=O)[C@H](Cc2cncn2C)NC(=O)[C@H](C)NC(=O)[C@H](Cc2c[nH]cn2)NC(=O)[C@H](Cc2ccc(O)cc2)N(C)C(=O)[C@H](CCCNC(=N)N)NC(=O)[C@H](CO)NC(=O)CNC(=O)[C@H](Cc2c[nH]cn2)NC(=O)[C@H](Cc2cccc3ccccc23)NC1=O (stereo in doubt) [Compound 38]	100	13	100	0.063	100
CC[C@@H]1NC(=O)[C@H](Cc2ccccc2)NC(=O)CSC[C@@H](C(=O)NCC(N)=O)NC(=O)[C@H](Cc2cncn2C)NC(=O)[C@H](CCCNC(=N)N)N(C)C(=O)[C@H](Cc2c[nH]cn2)NC(=O)[C@H](Cc2ccc(O)cc2)N(C)C(=O)[C@H](CCCNC(=N)N)NC(=O)[C@H](CO)NC(=O)CNC(=O)[C@H](Cc2c[nH]cn2)NC(=O)[C@H](Cc2cccc3ccccc23)NC1=O [Compound 34] ({CH2CO}-F[Abu][1Nal]HGSR[NMeY]H[NMeR][His(π-Me)]CG-NH2; thioether N-12)	25	6.3	100	0.063	41.667
CC[C@H](C)[C@@H]1NC(=O)[C@H](Cc2ccccc2)NC(=O)CSC[C@@H](C(=O)NCC(N)=O)NC(=O)[C@H](Cc2cncn2C)NC(=O)[C@H](CCCNC(=N)N)NC(=O)[C@H](Cc2cnc[nH]2)NC(=O)[C@H](Cc2ccccc2)N(C)C(=O)[C@H](CCCNC(=N)N)NC(=O)[C@H](CO)NC(=O)CNC(=O)[C@H](Cc2cnc[nH]2)NC(=O)[C@H](Cc2c[nH]c3ccccc23)NC1=O (racemic) [Compound 15]	75	3.1	100	0.016	50
CC[C@@H]1NC(=O)[C@H](Cc2ccc(O)cc2)NC(=O)CSC[C@@H](C(=O)NCC(N)=O)NC(=O)[C@H](Cc2cncn2C)NC(=O)[C@H](CCCNC(=N)N)NC(=O)[C@H](Cc2c[nH]cn2)NC(=O)[C@H](Cc2ccc(O)cc2)N(C)C(=O)[C@H](CCCNC(=N)N)NC(=O)[C@H](CO)NC(=O)CNC(=O)[C@H](Cc2c[nH]cn2)NC(=O)[C@H](Cc2cccc3ccccc23)NC1=O [Compound 19, (3R,6S,9S,12S,15S,18S,21S,27S,30S, 33S,36S)-N-(2-amino-2-oxo-ethyl)-33-ethyl-9,18-bis(3-guanidinopropyl)-21-(hydroxymethyl)-15,36-bis[(4-hydroxyphenyl)methyl]-12,27-bis(1H-imidazol-4-ylmethyl)-16-methyl-6-[(3-methylimidazol-4-yl)methyl]-30-(1-naphthylmethyl)-5,8,11,14,17,20,23,26,29,32,35,38-dodecaoxo-1-thia-4,7,10,13,16,19,22,25,28,31,34,37-dodecazacyclononatriacontane-3-carboxamide] ({CH2CO}-Y[Abu][1Nal]HGSR[NMeY]HR[His(π-Me)]CG-NH2; thioether N-12)	6.3	0.39	6.3	0.0039	3.1
CC[C@@H]1NC(=O)[C@H](Cc2ccccc2)NC(=O)CSC[C@@H](C(=O)NCC(N)=O)NC(=O)[C@H](Cc2cncn2C)NC(=O)[C@H](CCCNC(=N)N)NC(=O)[C@H](Cc2c[nH]cn2)NC(=O)[C@H](Cc2ccc(O)cc2)N(C)C(=O)[C@H](CCCNC(=N)N)NC(=O)[C@H](CO)NC(=O)CN(CCC(N)=O)C(=O)[C@H](Cc2c[nH]cn2)NC(=O)[C@H](Cc2cccc3ccccc23)NC1=O [Compound 30] ({CH2CO}-F[Abu][1Nal]H[Gly(Nα-CH2CH2CONH2)]SR[NMeY]HR[His(π-Me)]CG-NH2; thioether N-12)	100	1.6	50	0.016	25
CC[C@@H]1NC(=O)[C@H](Cc2ccccc2)NC(=O)CSC[C@@H](C(=O)NCC(N)=O)NC(=O)[C@H](Cc2cncn2C)NC(=O)[C@H](CCCNC(=N)N)NC(=O)[C@H](Cc2cnc[nH]2)NC(=O)[C@H](Cc2ccc(O)cc2)N(C)C(=O)[C@H](CCCNC(=N)N)NC(=O)[C@H](CO)NC(=O)CNC(=O)[C@H](Cc2cnc[nH]2)NC(=O)[C@H](Cc2cccc3ccccc23)NC1=O (racemic) [Compound 16]	8.5333	0.2633	14.767	1.577	27.32
CC[C@@H]1NC(=O)[C@H](Cc2ccc(Cl)cc2)NC(=O)CSC[C@@H](C(=O)NCC(N)=O)NC(=O)[C@H](Cc2cncn2C)NC(=O)[C@H](CCCNC(=N)N)NC(=O)[C@H](Cc2c[nH]cn2)NC(=O)[C@H](Cc2ccc(O)cc2)N(C)C(=O)[C@H](CCCNC(=N)N)NC(=O)[C@H](CO)NC(=O)CNC(=O)[C@H](Cc2c[nH]cn2)NC(=O)[C@H](Cc2cccc3ccccc23)NC1=O [Compound 22] ({CH2CO}-[Phe(4-Cl)][Abu][1Nal]HGSR[NMeY]HR[His(π-Me)]CG-NH2; thioether N-12)	13	0.39	25	0.002	6.3
CC(C)[C@@H]1NC(=O)[C@H](Cc2ccccc2)NC(=O)CSC[C@@H](C(=O)NCC(N)=O)NC(=O)[C@H](Cc2cnc[nH]2)NC(=O)[C@H](CCCNC(=N)N)NC(=O)[C@H](Cc2cnc[nH]2)NC(=O)[C@H](Cc2ccccc2)N(C)C(=O)[C@H](CCCNC(=N)N)NC(=O)[C@H](CO)NC(=O)CNC(=O)[C@H](Cc2cnc[nH]2)NC(=O)[C@H](Cc2c[nH]c3ccccc23)NC1=O (racemic) [Compound 1, rac-(3R,6S,9S,12S,15S,18S,21S,27S,30S, 33S,36S)-N-(2-amino-2-oxo-ethyl)-15,36-dibenzyl-9,18-bis(3-guanidinopropyl)-21-(hydroxymethyl)-6,12,27-tris(1H-imidazol-5-ylmethyl)-30-(1H-indol-3-ylmethyl)-33-isopropyl-16-methyl-5,8,11,14,17,20,23,26,29,32,35,38-dodecaoxo-1-thia-4,7,10,13,16,19,22,25,28,31,34,37-dodecazacyclononatriacontane-3-carboxamide]	50	6.3	100	0.031	50
